Assay results from the supplement of paper PMC10307832.

Experiments:
Assay in all cases: relative viability (nuclei count vs DMSO), 5 days (fraction); higher = more cells survive
[1] = compound: C1/C(=C\C2=CC=CS2)/C(=O)/C(=C/C3=CC=CS3)/C1 + Cc1nc(NC(=O)N2CCC[C@H]2C(N)=O)sc1-c1ccnc(C(C)(C)C(F)(F)F)c1 [Alpelisib] (partner 2 µM)
Outline: (§1)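 For relative viability, nuclei counts in treated wells were divided by those in vehicle wells. Lung cancer cell lines had been pin-tool dosed in 1536-well plates the day after seeding and cultured for 5 days, then fixed and stained in one step (final 0.05% Triton X-100, 1% formaldehyde, 1 ug/ml Hoechst) and imaged at 4×. Doses were one drug alone or a fixed anchor-drug dose plus five library-drug doses (not always all listed) in √10 steps, and values are duplicate-plate medians.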

[2] = compound: C1/C(=C\C2=CC=CS2)/C(=O)/C(=C/C3=CC=CS3)/C1 + Cc1nc(Nc2ncc(C(=O)Nc3c(C)cccc3Cl)s2)cc(N2CCN(CCO)CC2)n1 [Dasatinib] (partner 0.075 µM)
Outline: as §1

TPCA-1 + OSI-027 = compound: C1=CC(=CC=C1C2=CC(=C(S2)NC(=O)N)C(=O)N)F [TPCA-1] + COc1cccc2cc(-c3nc([C@H]4CC[C@H](C(=O)O)CC4)n4ncnc(N)c34)[nH]c12 [OSI-027] (partner 0.5 µM)
Outline: as §1

TPCA-1 + Pemetrexed = compound: C1=CC(=CC=C1C2=CC(=C(S2)NC(=O)N)C(=O)N)F [TPCA-1] + Nc1nc2[nH]cc(CCc3ccc(C(=O)N[C@@H](CCC(=O)O)C(=O)O)cc3)c2c(=O)[nH]1 [Pemetrexed] (partner 0.2 µM)
Outline: as §1

Row | Cell Line | relative viability ([1]; first compound 0.2 µM) | relative viability ([1]; first compound 0.6325 µM) | relative viability ([1]; first compound 2 µM) | relative viability ([1]; first compound 6.325 µM) | relative viability ([1]; first compound 20 µM) | relative viability ([2]; first compound 0.2 µM) | relative viability ([2]; first compound 0.6325 µM) | relative viability ([2]; first compound 2 µM) | relative viability ([2]; first compound 6.325 µM) | relative viability ([2]; first compound 20 µM) | relative viability (TPCA-1 + OSI-027; first compound 0.04 µM) | relative viability (TPCA-1 + OSI-027; first compound 0.1265 µM) | relative viability (TPCA-1 + OSI-027; first compound 0.4 µM) | relative viability (TPCA-1 + OSI-027; first compound 1.265 µM) | relative viability (TPCA-1 + OSI-027; first compound 4 µM) | relative viability (TPCA-1 + Pemetrexed; first compound 0.04 µM) | relative viability (TPCA-1 + Pemetrexed; first compound 0.1265 µM) | relative viability (TPCA-1 + Pemetrexed; first compound 0.4 µM) | relative viability (TPCA-1 + Pemetrexed; first compound 1.265 µM) | relative viability (TPCA-1 + Pemetrexed; first compound 4 µM)
1 | H3255 | 0.759 | 0.553 | 0.661 | 0.66 | 0.704 | 0.298 | 0.366 | 0.568 | 0.321 | 0.289 | 0.674 | 0.578 | 0.592 | 0.463 | 0.483 | 0.577 | 0.487 | 0.58 | 0.484 | 0.493
2 | EMC-BAC-2 | 0.743 | 0.75 | 0.694 | 0.655 | 0.696 | 0.359 | 0.372 | 0.366 | 0.306 | 0.431 | 0.383 | 0.38 | 0.45 | 0.221 | 0.265 | 0.422 | 0.472 | 0.466 | 0.436 | 0.484
3 | CAL-12T | 1.33 | 1.15 | 0.95 | 0.856 | 1.13 | 0.513 | 0.504 | 0.566 | 0.341 | 0.48 | 0.678 | 0.614 | 0.664 | 0.523 | 0.185 | 1.12 | 0.968 | 1.17 | 1.09 | 0.828
4 | NCI-H650 | 1.2 | 1.19 | 1.19 | 0.935 | 1.05 | 0.462 | 0.416 | 0.569 | 0.446 | 0.444 | 0.533 | 0.498 | 0.617 | 0.286 | 0.374 | 0.952 | 0.916 | 0.994 | 0.631 | 0.809
5 | SK-MES-1 | 1.04 | 0.912 | 0.879 | 0.854 | 0.798 | 0.337 | 0.421 | 0.366 | 0.391 | 0.425 | 0.589 | 0.567 | 0.558 | 0.319 | 0.211 | 0.925 | 0.808 | 0.91 | 0.769 | 0.631
6 | NCI-H1355 | 0.794 | 0.722 | 0.758 | 0.72 | 0.804 | 0.772 | 0.701 | 0.712 | 0.598 | 0.682 | 0.466 | 0.365 | 0.414 | 0.313 | 0.234 | 1.06 | 1 | 1.01 | 0.945 | 0.878
7 | NCI-H838 | 1.03 | 0.986 | 0.939 | 0.848 | 0.974 | 0.278 | 0.268 | 0.274 | 0.276 | 0.284 | 0.427 | 0.353 | 0.391 | 0.389 | 0.299 | 0.25 | 0.225 | 0.259 | 0.264 | 0.294
8 | LK-2 | 0.94 | 1.02 | 0.856 | 1.13 | 0.813 | 0.359 | 0.443 | 0.345 | 0.29 | 0.346 | 0.222 | 0.174 | 0.232 | 0.205 | 0.198 | 0.268 | – | 0.253 | 0.232 | 0.141
9 | NCI-H322M | 0.739 | 0.833 | 0.832 | 0.666 | 0.708 | 0.256 | 0.244 | 0.249 | 0.237 | 0.247 | 0.567 | 0.534 | 0.564 | 0.581 | 0.382 | 0.614 | 0.481 | 0.57 | 0.566 | 0.497
10 | NCI-H661 | 0.611 | 0.792 | 0.838 | 0.515 | 0.7 | 0.998 | 0.801 | 0.811 | 0.833 | 0.85 | 0.734 | 0.665 | 0.749 | 0.607 | 0.39 | 0.931 | 0.906 | 0.931 | 0.851 | 0.97
11 | NCI-H2228 | 0.787 | 0.692 | 0.745 | 0.619 | 0.869 | 0.638 | 0.479 | 0.535 | 0.408 | 0.531 | 0.774 | 0.503 | 0.519 | 0.633 | 0.283 | 0.364 | 0.322 | 0.319 | 0.316 | 0.306
12 | NCI-H1395 | 1.1 | 1.04 | 1.17 | 1.02 | 1.08 | 0.422 | 0.406 | 0.399 | 0.406 | 0.382 | 0.745 | 0.631 | 0.738 | 0.585 | 0.592 | 0.857 | 0.859 | 1.06 | 0.847 | 0.629
13 | NCI-H520 | 0.927 | 0.847 | 0.928 | 0.82 | 0.835 | 0.218 | 0.212 | 0.165 | 0.241 | 0.213 | 0.302 | 0.234 | 0.19 | 0.231 | 0.243 | 0.779 | 0.727 | 0.737 | 0.578 | 0.608
14 | NCI-H441 | 0.819 | 0.832 | 0.719 | 0.578 | 0.737 | 0.798 | 0.739 | 0.573 | 0.522 | 0.412 | 0.841 | 0.443 | 0.511 | 0.302 | 0.201 | 0.247 | 0.257 | 0.258 | 0.24 | 0.242
